# Read-outs that look alike come from different tables or passages of the source. Non-standard residues stand in square brackets, D forms with d. Residues, ends and D or L forms follow the SMILES beside them. Phe(2,6-Me2,4-CONH2) = Cc1cc(C(N)=O)cc(C)c1C[C@H](N)C(=O)O; Dmt = Cc1cc(O)cc(C)c1C[C@H](N)C(=O)O; Tic = O=C(O)[C@@H]1Cc2ccccc2CN1
# Key:
# μ opioid receptor [1] = assay: GPI; design: species or system guinea pig
# δ opioid receptor [2] = biological target: T1, δ opioid receptor (Mus musculus, UniProt P32300); assay: MVD
# T1 sequence (P32300 whole entry): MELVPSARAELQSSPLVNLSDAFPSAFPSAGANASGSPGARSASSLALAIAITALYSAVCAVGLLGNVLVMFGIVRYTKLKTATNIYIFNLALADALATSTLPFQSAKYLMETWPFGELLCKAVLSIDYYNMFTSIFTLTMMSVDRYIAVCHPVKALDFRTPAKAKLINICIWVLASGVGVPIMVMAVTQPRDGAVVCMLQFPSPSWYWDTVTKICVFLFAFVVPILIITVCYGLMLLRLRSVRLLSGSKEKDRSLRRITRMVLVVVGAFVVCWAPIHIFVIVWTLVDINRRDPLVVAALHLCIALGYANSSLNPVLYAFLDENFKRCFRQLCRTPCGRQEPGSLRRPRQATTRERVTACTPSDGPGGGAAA
# δ opioid receptor [3] = biological target: T1, δ opioid receptor; conditions: δ antagonist activity; ref Schiller et al.[10]; cited from earlier work
# κ opioid receptor = κ opioid receptor (UniProt P41144); conditions: read-out: Ki^κ; ref Schiller et al.[10]; cited from earlier work
# κ opioid receptor, sequence (P41144 whole entry): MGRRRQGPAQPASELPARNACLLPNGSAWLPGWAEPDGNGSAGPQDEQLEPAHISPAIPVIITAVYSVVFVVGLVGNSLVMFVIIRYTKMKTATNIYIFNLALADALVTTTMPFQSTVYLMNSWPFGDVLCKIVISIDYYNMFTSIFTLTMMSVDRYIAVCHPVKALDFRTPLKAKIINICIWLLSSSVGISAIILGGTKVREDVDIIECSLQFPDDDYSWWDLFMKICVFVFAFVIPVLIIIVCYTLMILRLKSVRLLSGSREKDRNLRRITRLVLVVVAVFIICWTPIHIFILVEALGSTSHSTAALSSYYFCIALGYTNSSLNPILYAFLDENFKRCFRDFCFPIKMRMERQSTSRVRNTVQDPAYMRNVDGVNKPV
# μ opioid receptor [4] = conditions: result in words; ref Schiller et al.[10]; cited from earlier work
# μ opioid receptor [5] = biological target: μ opioid receptor (UniProt P33535); conditions: read-out: Ki^μ; ref Schiller et al.[10]; cited from earlier work
# μ opioid receptor (UniProt P33535), sequence (P33535 whole entry): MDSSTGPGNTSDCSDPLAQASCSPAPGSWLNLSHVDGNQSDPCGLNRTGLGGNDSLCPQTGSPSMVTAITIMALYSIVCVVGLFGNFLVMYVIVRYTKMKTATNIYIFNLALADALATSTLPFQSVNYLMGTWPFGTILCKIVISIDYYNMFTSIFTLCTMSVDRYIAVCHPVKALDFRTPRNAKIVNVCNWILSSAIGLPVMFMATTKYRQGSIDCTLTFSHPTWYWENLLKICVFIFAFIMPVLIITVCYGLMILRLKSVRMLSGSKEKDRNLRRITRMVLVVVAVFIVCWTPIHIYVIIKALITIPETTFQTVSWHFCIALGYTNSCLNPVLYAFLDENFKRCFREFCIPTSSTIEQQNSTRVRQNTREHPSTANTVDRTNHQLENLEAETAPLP
compound,measurement,setting,value
"N[C@@H](Cc1ccc(O)cc1)C(=O)N1Cc2ccccc2C[C@H]1C(=O)O [compound 9, H-Tyr-Tic-OH] (H-Tyr-[Tic]-OH)",GPI activity,μ opioid receptor [1]; result in words,inactive
same,Kb,δ opioid receptor [2],263 ± 40 nM
"Cc1cc(C(N)=O)cc(C)c1C[C@H](N)C(=O)N1Cc2ccccc2C[C@H]1C(=O)N[C@@H](Cc1ccccc1)C(=O)N[C@@H](Cc1ccccc1)C(=O)O [compound 12, H-Cdp-Tic-Phe-Phe-OH] (H-[Phe(2,6-Me2,4-CONH2)][Tic]FF-OH)",GPI Ke^μ,μ opioid receptor [1]; μ antagonist activity,3.07 ± 0.26 µM
same,Kb,δ opioid receptor [2],0.627 ± 0.058 nM
H-Y[Tic]FF-OH [compound 8],MVD Ke^δ,δ opioid receptor [3],4.80 ± 0.20 nM
H-[Dmt]-[Tic]-OH [compound 11],Ki,κ opioid receptor,> 1000 nM
same,GPI activity,μ opioid receptor [4],inactive
same,Ki,μ opioid receptor [5],1360 ± 160 nM
H-[Dmt][Tic]FF-OH [compound 10],MVD Ke^δ,δ opioid receptor [3],0.196 ± 0.035 nM

# Reference: publication PMC2783503 (Journal of medicinal chemistry, 2009)
